“Also recorded” adds a separate entry of the source.

The test system of series [1] is primary cortical neurons treated with rotenone. In words: Image-based analysis of mitochondrial content in dendrites (MAP2B/TOM20 immunostaining). The note with it: after rotenone 65 nM; Forskolin/NKH477 6.5 μM-8.5 μM or 250 μM dbt-cAMP; FIG. 4. The series is classed as cell-based, mouse. The source says:
The rotenone-treated neurons were also studied by image-based analyses of mitochondrial content in dendrites from primary cortical neurons immunostained for dendrites (MAP2B) and for mitochondria (TOM20).

Series [2] has the same test system. In words: Dendrite length analysis (MAP2B immunostaining). It counts as cell-based, mouse. Conditions: after rotenone 65 nM; Forskolin/NKH477 6.5 μM-8.5 μM or 250 μM dbt-cAMP; FIG. 5.
For series [3], the system named is PINK1 knockout mice. In words: Dendrite length and mitochondrial content of substantia nigra dopamine neurons in PINK1 knockout mice. The series is classed as in vivo, mouse. The note with it: intraperitoneal 1 mg/kg once every 2 days up to one week, vs untreated PINK1 knockout mice. On the procedure: All experiments involving mice and rats were performed in accord with ARRIVE (Animal Research: Reporting of In Vivo Experiments) guidelines. Wild-type C57BL/6 and PINK1 knockout mice (B6.129S4-Pink1^tm1Slm/J), wild-type (Long Evans rats) and PINK1 knockout (LEH-PINK1^tm1sage.Park6) rats (SAGE labs through Horizon Discovery) were handled humanely and appropriately per the ARRIVE guidelines. All mice were housed at the Laboratory of Animal Resources (University of Nevada, Reno) in cages containing sufficient bedding, food (pellets), water, with sufficient social, nutritional and “enriched” environments, and maintained in HVAC-pressurized/sterile environment and in 12:12 hr light/dark cycles.
Wild-type (PINK1+/+) or PINK1 knockout (PINK1−/−) mice were treated with intraperitoneal injections of DMSO control or Forskolin (1 mg/kg body weight) once every 2 days for up to one week. At the end of each treatment, mice were sacrificed, and intracardially perfused with saline followed by 4% formaldehyde. Midbrain slices from wild-type and PINK1 KO mice were immunostained for mitochondria (TOM20) and tyrosine hydroxylase (TH, purple) to identify midbrain dopamine neurons and dendrite length.

Series [4] concerns PINK1-KO rats. In words: Tyrosine hydroxylase immunofluorescence in midbrain slices of PINK1-KO rats. The series is classed as in vivo, rat. The note with it: female PINK1-KO rats; intraperitoneal Forskolin 1.6 mg/kg with or without Noopept 0.05 μg/kg; FIG. 13. On the procedure: Wild-type (PINK1+/+) or PINK1 knockout (PINK1−/−) rats were treated with intraperitoneal injections of DMSO control or of Forskolin (1.6 mg/kg body weight) once every 2 days for two doses followed by co-administration with Noopept (0.05 μg/kg) for three more doses (once every two days) for up to a total treatment time of 10 days. At the end of each treatment, a battery of motor tests were performed in vehicle-treated or WT and PINK1-KO rats treated with compounds to analyze for muscle strength in hind legs by using a grip strength analyzer. In addition, muscle coordination and balance were assessed by subjecting the rats to cross a 1-meter, tapered beam balance (2 cm width) for up to three trials per animal. Another group of wild-type and PINK1-KO rats were sacrificed, and intracardially perfused with saline followed by 4% formaldehyde. Midbrain slices from wild-type and PINK1-KO rats were immunostained for tyrosine hydroxylase (TH, purple) to identify midbrain dopamine neurons. […] (*:p<0.05 vs. WT/vehicle, **:p<0.05 vs. PINK1-KO/vehicle, One-Way ANOVA, Tukey's test, N=4-7 rats per group).

Series [5] has as its system Protein Kinase A (PKA). In words: PKA activity in cortex lysates after intranasal administration (ELISA-based colorimetric kit). The series is classed as in vivo, wild-type Long Evans Hooded rats. Conditions: for blood brain barrier crossing: intranasal formulation, inferred from increased cortical PKA activity within 24 hrs; for PKA activity in the cortex: intranasal, 6 μl per nostril, 24 hr, 2.5 and 10 μM in cerebrospinal fluid, vs 0 μM, FIG. 14. On the procedure:
PKA activity was measured in cortex of wild-type Long Evans Hooded rats by determining the level of PKA-mediated substrate phosphorylation by using an ELISA-based colorimetric PKA activity kit per manufacturer's recommendations (Enzo Life Sciences; ADI-EKS-390A) with the following minor modifications. To determine PKA-specific activity, lysates form the cortex were treated with H89, a pharmacological inhibitor of PKA at 10 μM for 5 min, and the H89-resistant kinase activity was subtracted from total kinase activity of untreated tissue lysates.
Combine 1.68 grams K2HPO4 ([…]), 5.28 grams KH2PO4 ([…]), and 81.8 grams NaCl ([…]). Add distilled H2O up to 1 L total volume. Autoclave and sterilize solution. Adjust the pH of the solution to 7.4 using a pH meter. Add 1 gram sodium benzoate (0.1%) or propyl benzoic acid. Reconstitute up to 2 mg of lyophilized, sterile, pharmaceutical grade water-soluble Forskolin analogue, for example water soluble analogue NKH477, in 1 mL of PBS by using a 1 mL syringe. Transfer the reconstituted Forskolin onto the receiving chamber of an intranasal atomizer (NAD nasal) prior to intranasal delivery.
(*:p<0.05 vs. 0 μM, One-Way ANOVA, Tukey's test, N=3 rats per group).

In the case of `C=C[C@@]1(C)CC(=O)[C@]2(O)[C@@]3(C)[C@@H](O)CCC(C)(C)[C@@H]3[C@H](O)[C@H](OC(C)=O)[C@@]2(C)O1` [Forskolin], the “mitochondrial content in dendrites (% of dendrites occupied by mitochondria)” value in series [1] is recorded as “reversed the loss of mitochondria within dendrites; also recorded: completely blocked; also recorded: significantly restored”. Besides, in series [2], the “dendrite arbors (total dendrite length per neuron)” value was “reversed the loss of dendrites; also recorded: completely blocked; also recorded: significantly restored”. In addition, the “dendrite length of substantia nigra dopamine neurons” value in series [3] (FIG. 6A) was “significantly increased; also recorded: reverses the loss of dendrites”. In addition, in series [3] (FIG. 6B), the “mitochondrial content in dendrites of substantia nigra dopamine neurons” value was “significantly increased; also recorded: reverses the loss of dendrites and mitochondria in dendrites”. In series [4], the “substantia nigra/midbrain dopamine neurons (integrated density of TH immunofluorescence)” value is recorded as “completely reverses the loss of midbrain dopamine neurons; also recorded: significantly reversed neurodegeneration”. Further, in series [5], the “blood brain barrier crossing” value was “can efficiently cross the blood brain barrier; also recorded: efficiently crosses the blood brain barrier” and the “PKA activity in the cortex” value is reported as “significantly increases PKA activity”. Further, in series [5] (listed as forskolin), the “blood brain barrier crossing” value is “crosses the blood brain barrier efficiently” and the “PKA activity in the cortex” value is “enhances neuroprotective PKA activity”.

For the origin of these results see patent US11612583B2, “Disease modifying methods for treating neurodegenerative diseases using nootropic agents” (priority 2018, dated 2023).
